Experimental data taken from US20060161007A1, “Oxazole and thiazole combinatorial libraries” (priority 1999, published 2006).

Experiments:
DNA = DNA binding activity by capillary zone electrophoresis
Protocol: The DNA binding activity of the tetrapeptide amides in the first library was measured using capillary zone electrophoresis.

[1] = solubility of building block 3 in solvents; assay type: physicochemical
Protocol: 2-(2′-Boc-aminomethyl-oxazole-4′-yl)-thiazole-4-carboxylic acid (37) (0.65 g, 2 mmol) was added in 30 ml of 40% TFA in DCM and stirred for 60 min. The solvent was removed by concentration under reduced pressure. The residue was diluted with 10 ml of water, which was neutralized to pH 7 by adding 1 M sodium hydroxide (aqueous solution), followed by addition of solid sodium carbonate (0.42 g, 4 mmole) and a solution of Fmoc-OSu (1 g, 3 mmole) in 60 ml of THF. After stirring for 2 hours (white solid precipitated), the reaction mixture was concentrated under reduced pressure to remove the THF, and diluted with 30 ml of water. The aqueous solution was washed with DCM (50 ml×3), and acidified to pH 3 by adding 10% potassium hydrogensulfate (aqueous solution). The white solid which formed was collected by filtration. This product was insoluble in DCM, ether, EtOAc, THF, methanol, ethanol, acetonitrile, HFIP, DMF, NMP and water. It was soluble in DMSO or the solutions containing more than 50% DMSO in DMF or NMP. The product was recrystallized in DMSO-water to give a fine white powder (0.69 g). Yield: 77%. RP-HPLC analysis: retention […]=14.18 min (average of two runs). ^1H-NMR (90 MHz, DMSO-d6) δ ppm: 8.74 (s, 1H), 8.38 (s, 1H), 7.89-7.31 (m, 8H), and 4.394.30 (m, 5H). ESI-MS (m/z): 448.2 [M +H]+, (calculated monoisotopic mass 448.10), 470.2 [M+Na]^+, 486.2 [M+K]^+.

Vibrio anguillarum = experiment: growth of Vibrio anguillarum cultures (OD650) after incubation with peptide; assay type: cell-based; conditions: for effect on the growth of V. anguillarum cultures: result in words; for OD650 of V. anguillarum cultures: 28°; for killing of the bacteria: OD of the cultures still increased at different incubation times
Protocol: The marin bacterium Vibrio anguillarum, a fish pathogen causing the disease “vibriosis” in marine fish and shellfish were used in this experiment.
Bacteria (V. anguillarum) were grown overnight at 28° C. in Luria-Bertani (LB) 20 medium (the concentration of NaCl is 20 g/L for marine bacteria in LB medium, instead of the usual 10 g/L). The culture was re-inoculated and incubated in LB20 medium at 28° C. (ca. 2hr) to reach the exponential growth phase of the bacteria. The bacterial suspension was then dilute with 0.1×LB20 medium to make the bacterial dilution containing 2×10^3 colony-forming units (cfm)/ml.
At time zero, the bacteria were treated with the peptide in 0.1×LB20 medium. After incubation for 3 hours, 1×LB20 medium was added to the culture, and incubated for 20 hours.

[2] = 31.2 μM peptide, 9 hr incubation
[3] = 31.2 μM peptide, 20 hr incubation
[4] = 62.5 μM peptide, 9 hr incubation
[5] = 62.5 μM peptide, 20 hr incubation
[6] = 125 μM peptide, 9 hr incubation
[7] = 125 μM peptide, 20 hr incubation
[8] = 250 μM peptide, 9 hr incubation
[9] = 250 μM peptide, 20 hr incubation
[10] = 500 μM peptide, 9 hr incubation
[11] = 500 μM peptide, 20 hr incubation

| Compound | Ka(1), stoichiometric equilibrium binding constant near saturation (DNA) | effect on the growth of V. anguillarum cultures (Vibrio anguillarum) | OD650 of V. anguillarum cultures (Vibrio anguillarum; [2]) | OD650 of V. anguillarum cultures (Vibrio anguillarum; [3]) | OD650 of V. anguillarum cultures (Vibrio anguillarum; [4]) | OD650 of V. anguillarum cultures (Vibrio anguillarum; [5]) | OD650 of V. anguillarum cultures (Vibrio anguillarum; [6]) | OD650 of V. anguillarum cultures (Vibrio anguillarum; [7]) | OD650 of V. anguillarum cultures (Vibrio anguillarum; [8]) | OD650 of V. anguillarum cultures (Vibrio anguillarum; [9]) | OD650 of V. anguillarum cultures (Vibrio anguillarum; [10]) | OD650 of V. anguillarum cultures (Vibrio anguillarum; [11]) | killing of the bacteria (Vibrio anguillarum) | other results |
| --- | --- | --- | --- | --- | --- | --- | --- | --- | --- | --- | --- | --- | --- | --- |
| 2-(2′-Fmoc-aminomethyl-oxazole-4′-yl)-thiazole-4-carboxylic acid [Compound 3] | 20000 M⁻¹ |  |  |  |  |  |  |  |  |  |  |  |  |  |
| 2-(Fmoc-aminomethyl)-oxazole-4-carboxylic acid [Compound 2] | 24000 M⁻¹ |  |  |  |  |  |  |  |  |  |  |  |  |  |
| 2-(Fmoc-aminomethyl)-thiazole-4-carboxylic acid [Compound 1] | 25000 M⁻¹ |  |  |  |  |  |  |  |  |  |  |  |  |  |
| O=C(NCc1nc(-c2nc(C(=O)O)cs2)co1)OCC1c2ccccc2-c2ccccc21 [Compound 3, 2-(2′-Fmoc-aminomethyl-oxazole-4′-yl)-thiazole-4-carboxylic acid] |  |  |  |  |  |  |  |  |  |  |  |  |  | solubility ([1]; in DCM, ethyl ether, EtOAc, THF, methanol, ethanol, acetonitrile, HFIP, DMF, NMP or water): did not dissolve; solubility ([1]; in DCM, ethyl ether, EtOAc, THF, methanol, ethanol, acetonitrile, HFIP, DMF, NMP or water, listed as Compound (3)): insoluble; solubility ([1]; in DMSO, or solutions containing at least 50% DMSO in DMF or NMP): could only dissolve; solubility ([1]; in DMSO, or solutions containing at least 50% DMSO in DMF or NMP, listed as Compound (3)): soluble |
| CC(=O)NCc1nc(-c2nc(C(=O)NCC(=O)NCc3nc(C(=O)NCCCN)cs3)cs2)co1 [Compound L2-3] |  | did not have a detectable effect |  |  |  |  |  |  |  |  |  |  |  |  |
| CC(=O)NCc1nc(-c2nc(C(=O)NCC(=O)NCc3nc(C(=O)NCCCN)co3)cs2)co1 [Compound L2-6] |  | inhibited the growth | 0.137 | 0.395 | 0.130 | 0.391 | 0.120 | 0.402 | 0.113 | 0.427 | 0.073 | 0.388 | did not kill the bacteria |  |
| CC(=O)NCc1nc(-c2nc(C(=O)NCC(=O)NCc3nc(-c4nc(C(=O)NCCCN)cs4)co3)cs2)co1 [Compound L2-9] |  | inhibited the growth | 0.135 | 0.417 | 0.135 | 0.421 | 0.131 | 0.425 | 0.125 | 0.409 | 0.075 | 0.354 | did not kill the bacteria |  |
| Microcin B17 fragment 13-23 [Compound 39] |  | inhibited the growth | 0.111 | 0.419 | 0.082 | 0.297 | 0.051 | 0.279 | 0.034 | 0.241 | 0.034 | 0.244 | did not kill the bacteria |  |
| tachyplesin [reference compound] |  |  |  |  |  |  |  |  |  |  |  |  |  | OD650 of V. anguillarum cultures (Vibrio anguillarum; 6.25 μg/ml peptide, 9 hr incubation): 0.068; OD650 of V. anguillarum cultures (Vibrio anguillarum; 6.25 μg/ml peptide, 20 hr incubation): 0.036; OD650 of V. anguillarum cultures (Vibrio anguillarum; 12.5 μg/ml peptide, 9 hr incubation): 0.035; OD650 of V. anguillarum cultures (Vibrio anguillarum; 12.5 μg/ml peptide, 20 hr incubation): 0.035; OD650 of V. anguillarum cultures (Vibrio anguillarum; 25 μg/ml peptide, 9 hr incubation): 0.035; OD650 of V. anguillarum cultures (Vibrio anguillarum; 25 μg/ml peptide, 20 hr incubation): 0.035; OD650 of V. anguillarum cultures (Vibrio anguillarum; 50 μg/ml peptide, 9 hr incubation): 0.039; OD650 of V. anguillarum cultures (Vibrio anguillarum; 50 μg/ml peptide, 20 hr incubation): 0.038; OD650 of V. anguillarum cultures (Vibrio anguillarum; Dilution 5 (31.2 μg/ml) peptide, 9 hr incubation): 0.098; OD650 of V. anguillarum cultures (Vibrio anguillarum; Dilution 5 (31.2 μg/ml) peptide, 20 hr incubation): 0.034 |
